Results as given in PubChem BioAssay AID1745844 (Carcinogenic Potency Database (CPDB), 2022).
Calls of active or inactive are those of the source. No rule for the calls is given here.

System: rodent lifetime carcinogenesis bioassay, tumor incidence TD50
Test: carcinogenic potency in animals, long-term in vivo studies, CPDB compilation (AID 1745844)

**Q.** Which results are given for `Oc1ccccc1O`?
**A.** TD50 (mouse, strain B6C3F1, females, in feed, site: forestomach, lesion: papilloma, dosed 96 weeks, study length 96 weeks): 17300 mg/kg/day; TD50 (mouse, strain B6C3F1, females, in feed, site: liver, lesion: hyperplastic nodule, dosed 96 weeks, study length 96 weeks): 17300 mg/kg/day; TD50 (mouse, strain B6C3F1, females, in feed, site: stomach, glandular, lesion: adenoma, dosed 96 weeks, study length 96 weeks): 471 mg/kg/day; TD50 (mouse, strain B6C3F1, males, in feed, site: all sites, lesion: lymphoma and leukemia, combined, dosed 96 weeks, study length 96 weeks): 2460 mg/kg/day; TD50 (mouse, strain B6C3F1, males, in feed, site: forestomach, lesion: papilloma, dosed 96 weeks, study length 96 weeks): 16500 mg/kg/day; TD50 (mouse, strain B6C3F1, males, in feed, site: lung, lesion: adenoma, dosed 96 weeks, study length 96 weeks): 16500 mg/kg/day; TD50 (mouse, strain B6C3F1, males, in feed, site: stomach, glandular, lesion: adenoma, dosed 96 weeks, study length 96 weeks): 165 mg/kg/day; TD50 (rat, strain Crj:Wistar, males, in feed, site: forestomach, lesion: squamous-cell carcinoma, dosed 104 weeks, study length 104 weeks): 6470 mg/kg/day; TD50 (rat, strain Crj:Wistar, males, in feed, site: forestomach, lesion: squamous-cell papilloma, dosed 104 weeks, study length 104 weeks): 3180 mg/kg/day; TD50 (rat, strain Crj:Wistar, males, in feed, site: liver, lesion: hepatocellular carcinoma, dosed 104 weeks, study length 104 weeks): 6470 mg/kg/day; TD50 (rat, strain Crj:Wistar, males, in feed, site: liver, lesion: hyperplastic nodule, dosed 104 weeks, study length 104 weeks): 3180 mg/kg/day; TD50 (rat, strain Crj:Wistar, males, in feed, site: stomach, glandular, lesion: adenocarcinoma, dosed 104 weeks, study length 104 weeks): 200 mg/kg/day; TD50 (rat, strain Crj:Wistar, males, in feed, site: stomach, glandular, lesion: adenoma, dosed 104 weeks, study length 104 weeks): 64.5 mg/kg/day; TD50 (rat, strain Crj:Wistar, males, in feed, site: stomach, glandular, lesion: sarcoma, dosed 104 weeks, study length 104 weeks): 2080 mg/kg/day; TD50 (rat, strain F344/DuCrj, females, in feed, site: stomach, glandular, lesion: adenocarcinoma, dosed 104 weeks, study length 104 weeks): 490 mg/kg/day; TD50 (rat, strain F344/DuCrj, males, in feed, site: forestomach, lesion: carcinoma, in situ, dosed 51 weeks, study length 52 weeks): 833 mg/kg/day; TD50 (rat, strain F344/DuCrj, males, in feed, site: forestomach, lesion: papilloma, dosed 51 weeks, study length 52 weeks): 833 mg/kg/day; TD50 (rat, strain F344/DuCrj, males, in feed, site: forestomach, lesion: papilloma, dosed 104 weeks, study length 104 weeks): 2960 mg/kg/day; TD50 (rat, strain F344/DuCrj, males, in feed, site: forestomach, lesion: squamous-cell papilloma, dosed 51 weeks, study length 52 weeks): 833 mg/kg/day; TD50 (rat, strain F344/DuCrj, males, in feed, site: forestomach, lesion: squamous-cell papilloma, dosed 104 weeks, study length 104 weeks): 3300 mg/kg/day; TD50 (rat, strain F344/DuCrj, males, in feed, site: pancreas, lesion: acinar-cell adenoma, dosed 104 weeks, study length 104 weeks): 1180 mg/kg/day; TD50 (rat, strain F344/DuCrj, males, in feed, site: stomach, glandular, pyloric region, lesion: adenocarcinoma, dosed 104 weeks, study length 104 weeks): 3320 mg/kg/day; TD50 (rat, strain F344/DuCrj, males, in feed, site: stomach, glandular, pyloric region, lesion: adenoma, dosed 104 weeks, study length 104 weeks): 43.5 mg/kg/day; TD50 (rat, strain F344/DuCrj, males, in feed, site: stomach, glandular, pyloric region, lesion: sarcoma, dosed 104 weeks, study length 104 weeks): 1940 mg/kg/day; TD50 (rat, strain F344/DuCrj, males, in feed, site: stomach, glandular, lesion: adenocarcinoma, dosed 48 weeks, study length 96 weeks): 387 mg/kg/day; TD50 (rat, strain F344/DuCrj, males, in feed, site: stomach, glandular, lesion: adenocarcinoma, dosed 51 weeks, study length 51 weeks): 130 mg/kg/day; TD50 (rat, strain F344/DuCrj, males, in feed, site: stomach, glandular, lesion: adenocarcinoma, dosed 72 weeks, study length 72 weeks): 206 mg/kg/day; TD50 (rat, strain F344/DuCrj, males, in feed, site: stomach, glandular, lesion: adenocarcinoma, dosed 72 weeks, study length 96 weeks): 202 mg/kg/day; TD50 (rat, strain F344/DuCrj, males, in feed, site: stomach, glandular, lesion: adenocarcinoma, dosed 96 weeks, study length 96 weeks): 141 mg/kg/day; TD50 (rat, strain F344/DuCrj, males, in feed, site: stomach, glandular, lesion: adenocarcinoma, dosed 104 weeks, study length 104 weeks): 286 mg/kg/day; carcinogen call (rat, strain F344/DuCrj, males, in feed, site: stomach, glandular, lesion: adenoma, dosed 48 weeks, study length 96 weeks): positive; carcinogen call (rat, strain F344/DuCrj, males, in feed, site: stomach, glandular, lesion: adenoma, dosed 51 weeks, study length 51 weeks): positive; carcinogen call (rat, strain F344/DuCrj, males, in feed, site: stomach, glandular, lesion: adenoma, dosed 51 weeks, study length 52 weeks): positive; carcinogen call (rat, strain F344/DuCrj, males, in feed, site: stomach, glandular, lesion: adenoma, dosed 72 weeks, study length 72 weeks): positive; carcinogen call (rat, strain F344/DuCrj, males, in feed, site: stomach, glandular, lesion: adenoma, dosed 72 weeks, study length 96 weeks): positive; carcinogen call (rat, strain F344/DuCrj, males, in feed, site: stomach, glandular, lesion: adenoma, dosed 96 weeks, study length 96 weeks): positive; carcinogen call (rat, strain F344/DuCrj, males, in feed, site: stomach, glandular, lesion: several types, types named in the paper, dosed 51 weeks, study length 52 weeks): positive; TD50 (rat, strain Fischer 344, males, in drinking water, site: prostate, lesion: carcinoma, in situ, dosed 78 weeks, study length 78 weeks): 236 mg/kg/day (inactive); carcinogen call (rat, strain Fischer 344, males, in drinking water, site: urinary bladder, lesion: one or several types, types not named, dosed 78 weeks, study length 78 weeks): negative (inactive); TD50 (rat, strain LEW/Crj (Lewis), males, in feed, site: stomach, glandular, lesion: adenocarcinoma, dosed 104 weeks, study length 104 weeks): 166 mg/kg/day; TD50 (rat, strain LEW/Crj (Lewis), males, in feed, site: stomach, glandular, lesion: adenoma, dosed 104 weeks, study length 104 weeks): 64.5 mg/kg/day; TD50 (rat, strain LEW/Crj (Lewis), males, in feed, site: stomach, glandular, lesion: sarcoma, dosed 104 weeks, study length 104 weeks): 2080 mg/kg/day; TD50 (rat, strain SD(Crj:CD) Sprague-Dawley, males, in feed, site: forestomach, lesion: squamous-cell carcinoma, dosed 104 weeks, study length 104 weeks): 6470 mg/kg/day; TD50 (rat, strain SD(Crj:CD) Sprague-Dawley, males, in feed, site: forestomach, lesion: squamous-cell papilloma, dosed 104 weeks, study length 104 weeks): 983 mg/kg/day; TD50 (rat, strain SD(Crj:CD) Sprague-Dawley, males, in feed, site: stomach, glandular, lesion: adenocarcinoma, dosed 104 weeks, study length 104 weeks): 151 mg/kg/day; carcinogen call (rat, strain SD(Crj:CD) Sprague-Dawley, males, in feed, site: stomach, glandular, lesion: adenoma, dosed 104 weeks, study length 104 weeks): positive; TD50 (rat, strain WKY/NCrj (Wistar), males, in feed, site: forestomach, lesion: squamous-cell papilloma, dosed 104 weeks, study length 104 weeks): 6470 mg/kg/day; TD50 (rat, strain WKY/NCrj (Wistar), males, in feed, site: liver, lesion: several types, types named in the paper, dosed 104 weeks, study length 104 weeks): 12400 mg/kg/day; TD50 (rat, strain WKY/NCrj (Wistar), males, in feed, site: stomach, glandular, lesion: adenocarcinoma, dosed 104 weeks, study length 104 weeks): 2080 mg/kg/day; carcinogen call (rat, strain WKY/NCrj (Wistar), males, in feed, site: stomach, glandular, lesion: adenoma, dosed 104 weeks, study length 104 weeks): positive

**Q.** `Nc1cc([N+](=O)[O-])ccc1C(=O)O` was tested. Which carcinogen call (mouse, strain B6C3F1, females, in feed, site: any site (literature study), lesion: several types, types named in the paper, dosed 78 weeks, study length 93 weeks) did it give?
**A.** negative (inactive)

**Q.** What about the TD50 (mouse, strain B6C3F1, females, in feed, site: lung, lesion: alveolar/bronchiolar adenoma + alveolar/bronchiolar carcinoma, dosed 78 weeks, study length 93 weeks) of the same molecule?
**A.** 2560 mg/kg/day

**Q.** And the TD50 (mouse, strain B6C3F1, males, in feed, site: all sites, lesion: hemangioma + hemangiosarcoma, dosed 78 weeks, study length 93 weeks)?
**A.** 12600 mg/kg/day (inactive)

**Q.** What about the TD50 (mouse, strain B6C3F1, males, in feed, site: any site (literature study), lesion: several types, types named in the paper, dosed 78 weeks, study length 93 weeks) of the same molecule?
**A.** 1660 mg/kg/day

**Q.** What about the carcinogen call (rat, strain Fischer 344, females, in feed, site: any site (literature study), lesion: several types, types named in the paper, dosed 78 weeks, study length 105 weeks) of the same molecule?
**A.** negative (inactive)

**Q.** What about the TD50 (rat, strain Fischer 344, females, in feed, site: liver, lesion: hepatocellular adenoma + hepatocellular carcinoma + neoplastic nodule, dosed 78 weeks, study length 105 weeks) of the same molecule?
**A.** 11800 mg/kg/day

**Q.** What about the carcinogen call (rat, strain Fischer 344, males, in feed, site: any site (literature study), lesion: several types, types named in the paper, dosed 78 weeks, study length 105 weeks) of the same molecule?
**A.** negative (inactive)

**Q.** What about the TD50 (rat, strain Fischer 344, males, in feed, site: liver, lesion: hepatocellular adenoma + hepatocellular carcinoma + neoplastic nodule, dosed 78 weeks, study length 105 weeks) of the same molecule?
**A.** 3710 mg/kg/day

**Q.** Which results are given for `CCN(Cc1cccc(S(=O)(=O)O)c1)c1ccc(C(=C2C=CC(=[N+](CC)Cc3cccc(S(=O)(=O)[O-])c3)C=C2)c2ccc(S(=O)(=O)O)cc2)cc1`?
**A.** TD50 (mouse, strain C3HeB/FeJ, females, in feed, site: any site (literature study), lesion: malignant tumor, dosed 104 weeks, study length 104 weeks): 152000 mg/kg/day (inactive); TD50 (mouse, strain C3HeB/FeJ, females, in feed, site: any site (literature study), lesion: several types, types named in the paper, dosed 104 weeks, study length 104 weeks): 148000 mg/kg/day; TD50 (mouse, strain C3HeB/FeJ, females, in feed, site: lung, lesion: several types, types named in the paper, dosed 104 weeks, study length 104 weeks): 43800 mg/kg/day; TD50 (mouse, strain C3HeB/FeJ, males, in feed, site: any site (literature study), lesion: malignant tumor, dosed 104 weeks, study length 104 weeks): 49300 mg/kg/day (inactive); TD50 (mouse, strain C3HeB/FeJ, males, in feed, site: any site (literature study), lesion: several types, types named in the paper, dosed 104 weeks, study length 104 weeks): 318000 mg/kg/day; TD50 (mouse, strain C3HeB/FeJ, males, in feed, site: liver, lesion: several types, types named in the paper, dosed 104 weeks, study length 104 weeks): 18900 mg/kg/day; TD50 (mouse, strain C3HeB/FeJ, males, in feed, site: lung, lesion: several types, types named in the paper, dosed 104 weeks, study length 104 weeks): 58200 mg/kg/day; carcinogen call (rat, strain Not specified, males, in feed, site: any site (literature study), lesion: one or several types, types not named, dosed 65 weeks, study length 65 weeks): negative (inactive); carcinogen call (rat, strain Osborne-Mendel, females, in feed, site: any site (literature study), lesion: malignant tumor, dosed 104 weeks, study length 104 weeks): negative (inactive); carcinogen call (rat, strain Osborne-Mendel, females, in feed, site: any site (literature study), lesion: several types, types named in the paper, dosed 104 weeks, study length 104 weeks): negative (inactive); carcinogen call (rat, strain Osborne-Mendel, females, in feed, site: liver, lesion: one or several types, types not named, dosed 104 weeks, study length 104 weeks): negative (inactive); carcinogen call (rat, strain Osborne-Mendel, males, in feed, site: any site (literature study), lesion: malignant tumor, dosed 104 weeks, study length 104 weeks): negative (inactive); carcinogen call (rat, strain Osborne-Mendel, males, in feed, site: any site (literature study), lesion: several types, types named in the paper, dosed 104 weeks, study length 104 weeks): negative (inactive); carcinogen call (rat, strain Osborne-Mendel, males, in feed, site: liver, lesion: hepatocellular adenoma, dosed 104 weeks, study length 104 weeks): negative (inactive); TD50 (rat, strain Wistar, both sexes, in feed, site: cecum, lesion: malignant lymphoma, dosed 95 weeks, study length 95 weeks): 5640 mg/kg/day

**Q.** What does the source list for `CC1(C)O[C@@H]2C[C@H]3[C@@H]4CCC5=CC(=O)C=C[C@]5(C)[C@@]4(F)[C@@H](O)C[C@]3(C)[C@]2(C(=O)CO)O1`?
**A.** TD50 (rat, strain Charles River CD (Sprague-Dawley), males, in drinking water, site: liver, lesion: hepatocellular adenoma, dosed 104 weeks, study length 104 weeks): 0.0917 mg/kg/day; TD50 (rat, strain Charles River CD (Sprague-Dawley), males, in drinking water, site: liver, lesion: hepatocellular carcinoma, dosed 104 weeks, study length 104 weeks): 0.141 mg/kg/day; TD50 (rat, strain Charles River CD (Sprague-Dawley), males, in drinking water, site: liver, lesion: several types, types named in the paper, dosed 104 weeks, study length 104 weeks): 0.053 mg/kg/day
